Patent publication US20230085307A1, “PYRIDAZINONE COMPOUND AND HERBICIDE” (NISSAN CHEMICAL CORPORATION, priority 2019, published 2023)

What was measured:
velvetleaf [1] = test: Test Example 4: herbicidal effect by soil treatment (Table 19, symbol M); assay type: in vivo, velvetleaf (Abutilon theophrasti); details: amount of applied herbicide 320 g/ha
Summary of the method: (§1)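 Herbicidal effect was rated 3 weeks after treatment, using the scoring criteria of an earlier test. The compound, formulated as an emulsion and diluted in water to a set herbicide amount, had been sprayed uniformly on soil over freshly sown seeds. Growth took place in a greenhouse at 25° C. to 30° C.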

Italian ryegrass = test: Test Example 5: herbicidal effect by foliage application, plastic box (Table 20, symbol K); assay type: in vivo, Italian ryegrass (Lolium multiflorum); details: foliage application, AAH 320 g/ha, evaluated three weeks after application
Summary of the method: (§2)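 Foliar spray test: emulsion formulation diluted in water to a set application rate, sprayed onto 14-day-old plants raised in diluvial soil at 25° C to 30° C under glass. Both herbicidal effect and crop effect rated visually three weeks later.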

velvetleaf [2] = test: Test Example 5: herbicidal effect by foliage application, plastic box (Table 20, symbol M); assay type: in vivo, velvetleaf (Abutilon theophrasti); details: foliage application, AAH 320 g/ha, evaluated three weeks after application
Summary of the method: as §2

Chinese sprangletop = test: Test Example 3: herbicidal effect by foliage application, Wagner pot (Table 18, symbol D); assay type: in vivo, chinese sprangletop (Leptochloa chinensis); details: amount of applied herbicide 320 g/ha
Summary of the method: (§3)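 Plants were sown in alluvial soil held under 0.1–0.5 cm standing water and grown 14 days in a greenhouse at 25–30 °C. An emulsifiable formulation, water-diluted to the set dose, was then sprayed onto the foliage, and effects were scored three weeks later using previously defined criteria.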

barnyard grass [3] = test: Test Example 3: herbicidal effect by foliage application, Wagner pot (Table 18, symbol H); assay type: in vivo, barnyard grass (Echinochloa crus-galli); details: amount of applied herbicide 320 g/ha
Summary of the method: as §3

persian speedwell = test: Test Example 5: herbicidal effect by foliage application, plastic box (Table 20, symbol R); assay type: in vivo, Persian speedwell (Veronica persica); details: foliage application, AAH 320 g/ha, evaluated three weeks after application
Summary of the method: as §2

lambsquarters [4] = test: Test Example 4: herbicidal effect by soil treatment (Table 19, symbol O); assay type: in vivo, lambsquarters (Chenopodium album); details: amount of applied herbicide 320 g/ha
Summary of the method: as §1

lambsquarters [5] = test: Test Example 5: herbicidal effect by foliage application, plastic box (Table 20, symbol O); assay type: in vivo, lambsquarters (Chenopodium album); details: foliage application, AAH 320 g/ha, evaluated three weeks after application
Summary of the method: as §2

late watergrass = test: Test Example 1: herbicidal activity, application before weed generation under submerged conditions (Table 16, symbol A); assay type: in vivo, late watergrass (Echinochloa oryzicola); details: 320 g/ha applied herbicide
Summary of the method: (§4)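 Alluvial soil was flooded to 4 cm depth, weed seeds were sown mixed and 2.5-leaf rice seedlings were transplanted. On sowing day, the compound's emulsion, diluted in water to a set dose, was applied to the water surface. Plants grew at 25–30 °C and were scored 0–5 after three weeks.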

southern crabgrass [6] = test: Test Example 4: herbicidal effect by soil treatment (Table 19, symbol F); assay type: in vivo, southern crabgrass (Digitaria ciliaris); details: amount of applied herbicide 320 g/ha
Summary of the method: as §1

Japanese bulrush [7] = test: Test Example 1: herbicidal activity, application before weed generation under submerged conditions (Table 16, symbol B); assay type: in vivo, Japanese bulrush (Schoenoplectus juncoides); details: 320 g/ha applied herbicide
Summary of the method: as §4

windgrass [8] = test: Test Example 5: herbicidal effect by foliage application, plastic box (Table 20, symbol L); assay type: in vivo, windgrass (Apera spica-venti); details: foliage application, AAH 320 g/ha, evaluated three weeks after application
Summary of the method: as §2

wild oat = test: Test Example 5: herbicidal effect by foliage application, plastic box (Table 20, symbol I); assay type: in vivo, wild oat (Avena fatua); details: foliage application, AAH 320 g/ha, evaluated three weeks after application
Summary of the method: as §2

southern crabgrass [9] = test: Test Example 5: herbicidal effect by foliage application, plastic box (Table 20, symbol F); assay type: in vivo, southern crabgrass (Digitaria ciliaris); details: foliage application, AAH 320 g/ha, evaluated three weeks after application
Summary of the method: as §2

barnyard grass [10] = test: Test Example 4: herbicidal effect by soil treatment (Table 19, symbol H); assay type: in vivo, barnyard grass (Echinochloa crus-galli); details: amount of applied herbicide 320 g/ha
Summary of the method: as §1

windgrass [11] = test: Test Example 4: herbicidal effect by soil treatment (Table 19, symbol L); assay type: in vivo, windgrass (Apera spica-venti); details: amount of applied herbicide 320 g/ha
Summary of the method: as §1

Japanese bulrush [12] = test: Test Example 2: herbicidal activity, application during weed generation under submerged conditions (Table 17, symbol B); assay type: in vivo, Japanese bulrush (Schoenoplectus juncoides); details: AAH 320 g/ha; application during weed generation, submerged conditions
Summary of the method: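 Herbicide emulsion, diluted with water to the chosen amount, is applied onto 4 cm floodwater over alluvial soil where the weeds were co-sown and raised at 25–30° C. Application timing: 1–2 leaves. Assessment: three weeks afterwards.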

Compound	herbicidal effect on M: velvetleaf (velvetleaf [1])	K: Italian ryegrass, herbicidal effect (criteria 0-5) (Italian ryegrass)	M: velvetleaf, herbicidal effect (criteria 0-5) (velvetleaf [2])	herbicidal effect on D: Chinese sprangletop (Chinese sprangletop)	herbicidal effect on H: barnyard grass (barnyard grass [3])	R: persian speedwell, herbicidal effect (criteria 0-5) (persian speedwell)	herbicidal effect on O: lambsquarters (lambsquarters [4])	O: lambsquarters, herbicidal effect (criteria 0-5) (lambsquarters [5])	Herbicidal effect on A: late watergrass (grade 0-5) (late watergrass)	herbicidal effect on F: southern crabgrass (southern crabgrass [6])	Herbicidal effect on B: Japanese bulrush (grade 0-5) (Japanese bulrush [7])	L: windgrass, herbicidal effect (criteria 0-5) (windgrass [8])	I: wild oat, herbicidal effect (criteria 0-5) (wild oat)	F: southern crabgrass, herbicidal effect (criteria 0-5) (southern crabgrass [9])	herbicidal effect on H: barnyard grass (barnyard grass [10])	herbicidal effect on L: windgrass (windgrass [11])	herbicidal effect rating, B: Japanese bulrush (Japanese bulrush [12])
COc1cccc(S(=O)(=O)Oc2c(C)nn(C)c(=O)c2-c2c(-c3ccc(OC(F)F)cc3)sc3ccc(F)cc23)c1 [2-313]	4 (Herbicidal rate of 70% or more and less than 90%)	5 (Herbicidal rate of 90% or more (almost completely withered))	5 (Herbicidal rate of 90% or more (almost completely withered))	2 (Herbicidal rate of 20% or more and less than 40%)	5 (Herbicidal rate of 90% or more (almost completely withered))	5 (Herbicidal rate of 90% or more (almost completely withered))	3 (Herbicidal rate of 40% or more and less than 70%)	5 (Herbicidal rate of 90% or more (almost completely withered))	2 (Herbicidal rate of 20% or more and less than 40%)	0 (Herbicidal rate of 5% or less (almost no effect))	3 (Herbicidal rate of 40% or more and less than 70%)	2 (Herbicidal rate of 20% or more and less than 40%)	2 (Herbicidal rate of 20% or more and less than 40%)	4 (Herbicidal rate of 70% or more and less than 90%)	1 (Herbicidal rate of 5% or more and less than 20%)	0 (Herbicidal rate of 5% or less (almost no effect))	3 (Herbicidal rate of 40% or more and less than 70%)
C=CCSCc1ccc(-c2sc3ccc(F)cc3c2-c2c(O)c(C)nn(C)c2=O)cc1 [2-323]	1 (Herbicidal rate of 5% or more and less than 20%)	4 (Herbicidal rate of 70% or more and less than 90%)	5 (Herbicidal rate of 90% or more (almost completely withered))	2 (Herbicidal rate of 20% or more and less than 40%)	5 (Herbicidal rate of 90% or more (almost completely withered))	5 (Herbicidal rate of 90% or more (almost completely withered))	3 (Herbicidal rate of 40% or more and less than 70%)	5 (Herbicidal rate of 90% or more (almost completely withered))	4 (Herbicidal rate of 70% or more and less than 90%)	1 (Herbicidal rate of 5% or more and less than 20%)	2 (Herbicidal rate of 20% or more and less than 40%)	5 (Herbicidal rate of 90% or more (almost completely withered))	3 (Herbicidal rate of 40% or more and less than 70%)	5 (Herbicidal rate of 90% or more (almost completely withered))	0 (Herbicidal rate of 5% or less (almost no effect))	0 (Herbicidal rate of 5% or less (almost no effect))	0 (Herbicidal rate of 5% or less (almost no effect))
C#CCSCc1ccc(-c2sc3ccc(F)cc3c2-c2c(O)c(C)nn(C)c2=O)cc1 [2-325]	0 (Herbicidal rate of 5% or less (almost no effect))	4 (Herbicidal rate of 70% or more and less than 90%)	5 (Herbicidal rate of 90% or more (almost completely withered))	3 (Herbicidal rate of 40% or more and less than 70%)	5 (Herbicidal rate of 90% or more (almost completely withered))	5 (Herbicidal rate of 90% or more (almost completely withered))	4 (Herbicidal rate of 70% or more and less than 90%)	5 (Herbicidal rate of 90% or more (almost completely withered))	3 (Herbicidal rate of 40% or more and less than 70%)	0 (Herbicidal rate of 5% or less (almost no effect))	2 (Herbicidal rate of 20% or more and less than 40%)	5 (Herbicidal rate of 90% or more (almost completely withered))	4 (Herbicidal rate of 70% or more and less than 90%)	5 (Herbicidal rate of 90% or more (almost completely withered))	3 (Herbicidal rate of 40% or more and less than 70%)	0 (Herbicidal rate of 5% or less (almost no effect))	2 (Herbicidal rate of 20% or more and less than 40%)
COCCSCc1ccc(-c2sc3ccc(F)cc3c2-c2c(O)c(C)nn(C)c2=O)cc1 [2-327]	1 (Herbicidal rate of 5% or more and less than 20%)	4 (Herbicidal rate of 70% or more and less than 90%)	5 (Herbicidal rate of 90% or more (almost completely withered))	3 (Herbicidal rate of 40% or more and less than 70%)	5 (Herbicidal rate of 90% or more (almost completely withered))	5 (Herbicidal rate of 90% or more (almost completely withered))	4 (Herbicidal rate of 70% or more and less than 90%)	5 (Herbicidal rate of 90% or more (almost completely withered))	3 (Herbicidal rate of 40% or more and less than 70%)	2 (Herbicidal rate of 20% or more and less than 40%)	3 (Herbicidal rate of 40% or more and less than 70%)	5 (Herbicidal rate of 90% or more (almost completely withered))	3 (Herbicidal rate of 40% or more and less than 70%)	4 (Herbicidal rate of 70% or more and less than 90%)	3 (Herbicidal rate of 40% or more and less than 70%)	0 (Herbicidal rate of 5% or less (almost no effect))	2 (Herbicidal rate of 20% or more and less than 40%)
